Source: patent US20260000658A1, “METHODS FOR THE TREATMENT OF PROLIFERATIVE GLOMERULONEPHRITIS” (INSTITUT NATIONAL DE LA SANTÉ ET DE LA RECHERCHE MÉDICALE, priority 2022, published 2026)

Experiments:
Format in all cases: in vivo, mouse
[1] = test system: uninephrectomized PIK3CA^Pod-HO mice; assay: Uninephrectomized PIK3CA^Pod-HO mice, vehicle or alpelisib
Source text: (§1) A. Urinary albumin to creatinine ratio of PIK3CAWT and PIK3CAPod-HO mice 2 weeks following uninephrectomy and treated either with vehicle or alpelisib (n=8-9 mice per group). B. Serum creatinine levels, C. blood urea nitrogen (BUN) levels of PIK3CAWT and PIK3CAPod-HO mice 2 weeks following uninephrectomy and treated either with vehicle or alpelisib (n=8-9 mice per group). D. Glomerular lesion score of PIK3CAWT and PIK3CAPod-HO mice 2 weeks following uninephrectomy and treated either with vehicle or alpelisib (n=8-9 mice per group). E. Trajectory of albumin to creatinine ratio in the urine of PIK3CAPod-HO mice following uninephrectomy and treated with either vehicle or alpelisib (n=8-9 mice per group).
(§2) For the uninephrectomy experiments, the right kidneys were removed under anesthesia. For the medical treatment of mice, 50 mg kg −1 alpelisib (MedChem Tronica) in 1% carboxymethylcellulose (Sigma Aldrich)+0.5% Tween (Sigma Aldrich) or vehicle (1% carboxymethylcellulose+0.5% Tween) was administered by oral gavage daily for the indicated periods of time. Blood and urines were obtained at the indicated times. At euthanasia, blood, urines, kidneys were harvested. In some experiments, spleens, hearts, and bone marrow (BM) in femurs and tibias were harvested as well. Tissues were fixed in 4% paraformaldehyde and paraffin embedded for immunohistochemical analysis, snap-frozen in Optimal Cutting Temperature (OCT), or stored at −80° C. for mRNA or protein analysis.
(§3) Mouse blood counts were analyzed using a hematology analyzer (ProCyte Dx; IDEXX Laboratories). Mouse serum creatinine, blood urea nitrogen, urinary albumin, and urinary creatinine were evaluated using an AU5800 (Beckman Coulter) autoanalyzer. Serum anti-dsDNA measurement was performed according to the manufacturer's instruction using mouse anti-dsDNA ELISA kit (LBIS). The absorbance was measured using Ininite M Nano (TECAN).
(§4) 4-μm kidney sections were stained with periodic acid-Schiff (PAS), Masson's Trichrome (MT), Periodic acid metenamine silver (PAM) or Hematoxylin and Eosin (HE) staining for histological analysis. The degree of glomerular lesions was evaluated using the following scoring system: 0=no lesion, 1=affecting up to 25% of the glomerulus, 2=affecting 25-50% of the glomerulus, 3=affecting 50-75% of the glomerulus, and 4=affecting 75-100%. At least 50 glomeruli per sample were measured for each analysis. An indirect immunoperoxidase method was used for immunohistochemistry. Briefly, after deparaffinization, antigen retrieval was performed with citrate buffer (pH6) or Tris-EDTA buffer (pH9 or pH6) using microwave or high temperature (95° C.). Endogenous peroxidase activity was quenched using 3% hydrogen peroxide; nonspecific protein binding was blocked using 2.5% normal horse serum (Vector Laboratories), and endogenous biotin activity was quenched using the Avidin/Biotin Blocking Kit (Vector Laboratories). When using mouse primary antibodies on mouse tissue, Klear mouse blocking reagent (Diagomics) was used to block endogenous mouse immunoglobulins. After blocking, the tissue sections were incubated with the primary antibodies overnight at 4° C. The following primary antibodies were used: rabbit anti-Ki67 antibody (SP6; Thermo Fisher Scientific), rabbit anti-P-S6RP antibody (D68F8; Cell Signaling Technology), mouse anti-P-AKT (Ser473) antibody (587F11; Cell Signaling Technology), rabbit anti-P-AKT (Thr308) antibody (C31E5E; Cell Signaling Technology), mouse anti-S6RP antibody (54E2; Cell Signaling Technology), chicken anti-GFP antibody (Abcam), guinea pig anti-Nephrin antibody (GP-N2; Progen), rabbit anti-Podocin antibody (P0372; Sigma Aldrich), mouse anti-WTI antibody (6F-H2; DAKO). The corresponding secondary antibodies including anti-mouse IgG, anti-rabbit IgG, anti-guinea pig IgG, biotinylated anti-rabbit IgG (Vector Laboratories), and biotinylated anti-mouse IgG (Vector Laboratories) were applied. […]

uninephrectomized mice = assay: as above; settings: PIK3CA^WT mice, 2 weeks treatment
Source text: as §1, §2, §3, §4

MRL-lpr mice = MRL-lpr mice (lupus nephritis model) treated from 8 weeks old till death
Source text: A. Urinary albumin to creatinine ratio B. Blood urea nitrogen level, C. kidney to body weight ratio of NZBWF1/J mice at the time of sacrifice (4 weeks following either sham operation or uninephrectomy followed by the treatment either with vehicle or alpelisib) (n=5-15 mice per group). D. Representative P-S6RP/Nephrin coimmunofluorescence staining of kidneys from 4 weeks following either sham operation or uninephrectomy followed by the treatment either with vehicle or alpelisib) (n=4-6 mice per group). Scale bar […]. E. P-S6RP mean intensity quantification (n=4-6 mice per group). F. Col3a, G. Col1a, and H. Tnfα quantification of qRT-PCR analysis in the kidney cortex of kidneys at the time of sacrifice (4 weeks following either sham operation or uninephrectomy followed by the treatment either with vehicle or alpelisib) (n=5-15 mice per group). I. Kaplan-Meier survival curves of MRL-lpr mice treated either with vehicle or alpelisib (n=13-14 mice per group). J. Urinary albumin to creatinine ratio of MRL-lpr mice treated either with vehicle or alpelisib from 8 weeks old till death (n=13-14 mice per group). K. Vehicle treated mice, and L. alpelisib treated mice of the trajectory of urinary albumin to creatinine ratio of MRL-lpr mice (n=13-14 mice per group).
as §2, §3
4-μm kidney sections were stained with periodic acid-Schiff (PAS), Masson's Trichrome (MT), Periodic acid metenamine silver (PAM) or Hematoxylin and Eosin (HE) staining for histological analysis. The degree of glomerular lesions was evaluated using the following scoring system: 0=no lesion, 1=affecting up to 25% of the glomerulus, 2=affecting 25-50% of the glomerulus, 3=affecting 50-75% of the glomerulus, and 4=affecting 75-100%. At least 50 glomeruli per sample were measured for each analysis. An indirect immunoperoxidase method was used for immunohistochemistry. Briefly, after deparaffinization, antigen retrieval was performed with citrate buffer (pH6) or Tris-EDTA buffer (pH9 or pH6) using microwave or high temperature (95° C.). Endogenous peroxidase activity was quenched using 3% hydrogen peroxide; nonspecific protein binding was blocked using 2.5% normal horse serum (Vector Laboratories), and endogenous biotin activity was quenched using the Avidin/Biotin Blocking Kit (Vector Laboratories). When using mouse primary antibodies on mouse tissue, Klear mouse blocking reagent (Diagomics) was used to block endogenous mouse immunoglobulins. After blocking, the tissue sections were incubated with the primary antibodies overnight at 4° C. […]

[2] = 2 weeks after uninephrectomy, vs vehicle

Structure (SMILES): Cc1nc(NC(=O)N2CCC[C@H]2C(N)=O)sc1-c1ccnc(C(C)(C)C(F)(F)F)c1 [alpelisib, Alpelisib]
- expression of podocytes markers [1, 2]: higher expression of podocytes markers
- glomerular lesion score [1, 2]: preserved glomerular
- kidney function (serum creatinine, BUN) [1, 2]: better kidney function
- podocyte AKT/mTOR pathway activation [1, 2]: decreased podocyte AKT/mTOR pathway activation
- tubular dilation [1, 2]: fewer tubular dilation
- proteinuria (urinary albumin to creatinine ratio) ([1]; nephrectomy at 8 weeks old, 2 weeks treatment): significantly decreased
- kidney lesions (title of FIG. 2) ([1]; uninephrectomized PIK3CAPod-HO mice): improves kidney lesions
- phenotype of uninephrectomized PIK3CA^WT control mice (uninephrectomized mice): no particular phenotype, without proteinuria or kidney dysfunction
- kidney to body weight ratio (MRL-lpr mice; at sacrifice, vs vehicle): tendency to have a lower kidney to body weight ratio
- survival / life expectancy (Kaplan-Meier) (MRL-lpr mice; females, from 8 weeks old till death): significant extension of life expectancy
- trajectory of albuminuria before and after treatment introduction (MRL-lpr mice; from 8 weeks old): proteinuria improvement
- glomerular lesions, kidney examination (MRL-lpr mice; vs vehicle): no glomerular lesions
- kidney function (MRL-lpr mice; vs vehicle): improved kidney function
- proteinuria (urinary albumin to creatinine ratio) (MRL-lpr mice; vs vehicle): less proteinuria
